{"source": "patent US20100203587A1", "about": "“USE OF DNA GYRASE INHIBITORS FOR IN VITRO POLYPEPTIDE SYNTHESIS REACTIONS” (priority 2009, published 2010)", "key": {"[1]": {"test_system": "GM-CSF yields in cell-free reactions", "assay": "Cell-free protein synthesis reaction, GM-CSF yields", "assay_type": "biochemical, E. coli", "details": "for Concentration with very mild impact on GM-CSF yields in cell-free reactions: FIG. 3, 60 μL scale; for Concentration without impact in cell-free reactions: GM-CSF yields", "protocol": "In vitro protein synthesis reactions occurred in lysates generated from a population of cells. The lysate must be generated such that it would be useful for expressing proteins. E. coli A19ΔendAΔtonAΔspeAΔtnaAΔsdaAΔsdaBΔgshAΔgorTrxBHAmet^+ was used for as the extract source cell strain.\nE. coli cells were grown in a 10 L Braun Biostat C fermentor. The cells were grown on 2YPTG media in batch mode with pH control at pH 7.0. The cells were harvested at 3.2 OD (595) at growth rate of >0.7 per hour. Cells were separated from the media by centrifugation at 6000 g, 4° C. for 25 min and the resulting cell paste was stored at −80° C. The cell paste was thawed at 4° C. in S30 buffer (10 mM TRIS-acetate pH 8.2 (Sigma-Aldrich Corp. St. Louis, Mo.), 14 mM magnesium acetate (Sigma-Aldrich), and 60 mM potassium acetate (Sigma-Aldrich)) at a ratio of 1 mL of buffer per 1 g of wet cell paste. Resuspended cells were passed through a high pressure homogenizer (Emulsiflex C-50, Avestin Inc., Ottawa, Ontario, Canada). The pressure drop was set at 20000 psi. The homogenized mixture was then centrifuged at 30000 g, 4° C. for 30 minutes. The procedure was repeated twice and the supernatant was retained both times. The mixture was incubated at 37° C. for 80 min in a rotary shaker. The lysate was then centrifuged at 20000 g, 4° C. for 30 minutes and supernatant was retained.\nThe extract was pretreated with 50 μM iodoacetamide at 21° C. for 30 min. The plasmid contained the structural gene encoding the target protein and was constructed as explained above. Amino Acids were in an equimolar mixture of all 20 native amino acids.\nThe 250 μL of reaction mixture is spread on the bottom of a petri dish (BD Falcon) and incubated at 30° C. in a sealed humidified incubator for 5 hours. 300 mL reaction is performed in QPlus bioreactor, 4 L in 10 L Braun Biostat C fermentor and 100 L in 200 L fermentor (Sartorius)."}, "[2]": {"test_system": "hepatic nonprotein sulfhydryl groups (mainly reduced glutathione)", "details": "in vivo and in vitro studies using rats (Lake et al.; Fernyhough et al.); cited from earlier work"}, "[3]": {"test_system": "bacterial growth from lysate", "assay": "Inhibition of bacterial growth from lysate in LB medium (Example 6)", "assay_type": "cell-based", "details": "16 hours; for OD595 (cell density): 37° C."}, "bacterial strains": {"test_system": "bacterial strains", "details": "cited from earlier work; for minimum inhibitory concentration (According to literature): Klein et al."}, "[4]": {"test_system": "bacterial growth in lysates used for cell-free reactions", "assay": "Inhibition of bacterial growth from lysate in LB medium (Example 5)", "assay_type": "cell-based", "details": "20 hours; for OD595: 30° C.; for Concentration that inhibits growth: Example 5, 30° C.", "protocol": "20 μl of lysate was inoculated into 2 ml LB medium, which contained 0, 0.1, 0.25, 0.5, and 1 μg/mL of Norfloxacin or 0, 1, 2.5, 5, and 10 μg/ml Coumermycin A1 and was incubated at 30° C. by shaking at 300 rpm. OD595 was assayed after incubation for 20 hours."}, "Clostridium difficile": {"test_system": "Clostridium difficile", "details": "Clostridium difficile (Shungu et al.); cited from earlier work"}}, "note": "Like-named read-outs stand apart in the source and are kept apart here."}
{"molecule": "CO[C@@H]1[C@@H](OC(N)=O)[C@@H](O)[C@H](Oc2ccc3c(O)c(NC(=O)c4ccc(O)c(CC=C(C)C)c4)c(=O)oc3c2C)OC1(C)C", "note": "[Novobiocin]", "values": [{"measurement": "Concentration that negatively impacts GM-CSF yields in cell-free reactions", "setting": "[1]; FIG. 5", "result": "≥ 10", "unit": "µg/mL"}, {"measurement": "Effect on hepatic nonprotein sulfhydryl groups (mainly reduced glutathione)", "setting": "[2]", "result": "depletion of hepatic nonprotein sulfhydryl groups"}, {"measurement": "OD595 (cell density)", "setting": "[3]; 10 μg/ml", "result": 0.003}, {"measurement": "OD595 (cell density)", "setting": "[3]; 25 μg/ml", "result": 0.17}, {"measurement": "OD595 (cell density)", "setting": "[3]; 50 μg/ml", "result": 0.08}, {"measurement": "OD595 (cell density)", "setting": "[3]; 100 μg/ml", "result": 0.1}, {"measurement": "OD595 (cell density)", "setting": "[3]; 200 μg/ml", "result": 0.13}, {"measurement": "Concentration that inhibits growth (According to literature)", "setting": "bacterial strains; different bacterial strains (Smith and Davis)", "result": "100 to 300", "unit": "µg/mL"}]}
{"molecule": "Coumermycin A1", "values": [{"measurement": "Concentration with very mild impact on GM-CSF yields in cell-free reactions", "setting": "[1]", "result": 10, "unit": "µg/mL"}, {"measurement": "Concentration without impact in cell-free reactions", "setting": "[1]", "result": 10, "unit": "µg/mL"}, {"measurement": "OD595", "setting": "[4]; 1 μg/ml", "result": 1.7}, {"measurement": "OD595", "setting": "[4]; 2.5 μg/ml", "result": 1.2}, {"measurement": "OD595", "setting": "[4]; 5 μg/ml", "result": 1.1}, {"measurement": "OD595", "setting": "[4]; 10 μg/ml", "result": 0.2}, {"measurement": "Concentration that inhibits growth", "setting": "[4]", "result": 10, "unit": "µg/mL"}, {"measurement": "Concentration that inhibits growth (According to literature)", "setting": "bacterial strains; some strains tested (Hooper et al.)", "result": "2 to 8", "unit": "µg/mL"}]}
{"molecule": "O=C(O)c1cn(C2CC2)c2cc(N3CCNCC3)c(F)cc2c1=O", "note": "[Ciprofloxacin]", "values": [{"measurement": "Concentration that inhibits growth", "setting": "[3]; Example 6, 37° C.", "result": 1, "unit": "µg/mL"}, {"measurement": "minimum inhibitory concentration (According to literature)", "setting": "bacterial strains", "result": "1 (1) μg/ml"}, {"measurement": "minimum inhibitory concentration (According to literature)", "setting": "bacterial strains; listed as ciprofloxacin", "result": "about 1 μg/ml"}]}
{"molecule": "CCn1cc(C(=O)O)c(=O)c2cc(F)c(N3CCNCC3)cc21", "note": "[Norfloxacin]", "values": [{"measurement": "inhibitory concentration (literature)", "setting": "Clostridium difficile", "result": "1 to 128", "unit": "µg/mL"}, {"measurement": "Concentration with very mild impact on GM-CSF yields in cell-free reactions", "setting": "[1]", "result": "up to 2.5 μg/ml"}, {"measurement": "Concentration without impact in cell-free reactions", "setting": "[1]", "result": 2.5, "unit": "µg/mL"}, {"measurement": "OD595", "setting": "[4]; 0.1 μg/ml", "result": 1.8}, {"measurement": "OD595", "setting": "[4]; 0.25 μg/ml", "result": 1.3}, {"measurement": "OD595", "setting": "[4]; 0.5 μg/ml", "result": 1.2}, {"measurement": "OD595", "setting": "[4]; 1 μg/ml", "result": 0.06}, {"measurement": "Concentration that inhibits growth", "setting": "[4]", "result": 1, "unit": "µg/mL"}, {"measurement": "Concentration that inhibits growth (According to literature)", "setting": "bacterial strains; most gastrointestinal strains tested (Shungu et al.)", "result": "0.008 to 1", "unit": "µg/mL"}]}
